Values of other authors, collected in patent US20060058589A1, “Animal model to evaluate visceral pain perception” (priority 2002, published 2006).

Tested on: visceromotor response to duodenal distention
Conditions: conscious, freely moving rats; dose-dependent manner

Q: With `CN1CC[C@]23c4c5ccc(O)c4O[C@H]2[C@@H](O)C=C[C@H]3[C@H]1C5` [morphine] as the molecule, how does the “visceromotor response to duodenal distention” value read?
A: inhibited
